# Source: patent US20040043914A1, “Sustained release antimicrobial composition including a partially halogenated hydantoin and a colorant” (LONZA INC., priority 2002, published 2004)
# Test: Total chlorine yield upon dissolution
# Format: physicochemical
# Excerpt: The partially halogenated hydantoin is preferably monochloro-5,5-dimethyl hydantoin (MCDMH). MCDMH yields about 43% of its weight in total chlorine upon dissolution.
substance,measurement,value
"monochloro-5,5-dimethyl hydantoin [MCDMH]",total chlorine yielded upon dissolution,about 43 % of its weight
